# From the NIST ThermoML archive (doi:10.1016/j.jct.2017.01.011)
# ± gives the expanded uncertainty stated by the source.
# How the values were obtained:
# [1] = xn = mol fraction of the nth substance listed; details: 100 kPa, Liquid, x1 = 1; for speed of sound: Frequency=3 MHz, Single path-length method; for mass density: Vibrating tube method
# [2] = 100 kPa, Liquid; for speed of sound: Frequency=3 MHz, Single path-length method; for mass density: Vibrating tube method
SMILES,speed of sound ([1]; 283.15 K) [m/s],mass density ([1]; 283.15 K) [kg/m3],speed of sound ([1]; 293.15 K) [m/s],mass density ([1]; 293.15 K) [kg/m3],speed of sound ([1]; 303.15 K) [m/s],mass density ([1]; 303.15 K) [kg/m3],speed of sound ([1]; 313.15 K) [m/s],mass density ([1]; 313.15 K) [kg/m3],speed of sound ([2]; 283.15 K) [m/s],mass density ([2]; 283.15 K) [kg/m3],speed of sound ([2]; 293.15 K) [m/s],mass density ([2]; 293.15 K) [kg/m3],speed of sound ([2]; 303.15 K) [m/s],mass density ([2]; 303.15 K) [kg/m3],speed of sound ([2]; 313.15 K) [m/s],mass density ([2]; 313.15 K) [kg/m3]
CCO [ethanol] + OCC(O)CO,1196.8 ± 4.1,798 ± 1,1162.3 ± 4.1,790 ± 1,1128.2 ± 4.1,781 ± 1,1094.5 ± 4.1,772 ± 1,–,–,–,–,–,–,–,–
OCC(O)CO [glycerol],–,–,–,–,–,–,–,–,1942.3 ± 6.1,1267 ± 1,1922.9 ± 6.1,1261 ± 1,1901 ± 6.1,1255 ± 1,1879.3 ± 6.1,1248 ± 1
CO [methanol] + OCC(O)CO,1153.3 ± 4.1,801 ± 1,1119.6 ± 4.1,791 ± 1,1086.6 ± 4.1,782 ± 1,1054.2 ± 4.1,772 ± 1,–,–,–,–,–,–,–,–
